Data from patent publication US7605272B2, “IGF-1R inhibitor” (Kyowa Hakko Kirin Co., Ltd., priority 2005, dated 2009).
Counter-ions that a name gives are not always drawn.

Columns and labels:
NCI-H929 = assay: Cytostatic activity on human multiple myeloma cell line NCI-H929 (WST-1); type: cell-based; settings: Homo sapiens, NCI-H929, 72 h, 10 μmol/L, 72 hours; read-out: cytostatic rate (%) H929 (10 μmol/L)
Protocol: The cytostatic rates of a test compound on human multiple myeloma cell lines NCI-H929 and KMS-11, were determined in the following manner.
For culturing NCI-H929, Roswell Park Memorial Institute's Medium (RPMI) 1640 (Gibco, Catalog No. 11875-093) containing 15% fetal bovine serum (Gibco, Catalog No. 10099-141), 1 mmol/L sodium pyruvate (Gibco, Catalog No. 11360-070), 10 mmol/L HEPES (Gibco, Catalog No. 15630-80), 4.5 g/L glucose (Sigma, Catalog No. G8769), 0.05 mmol/L 2-mercaptethanol (Nacalai Tesque, Catalog No. 21418-42) and penicillin/streptomycin (1:1) (Gibco, Catalog No. 15140-122) was used. For culturing KMS-11 cell, RPMI 1640 medium containing 10% fetal bovine serum and penicillin/streptomycin (1:1) was used. Each 80 μL of the NCI-H929 cell having a concentration of 1×10^5 cells/mL (or the KMS-11 cell having a concentration of 7.5×10^4 cells/mL) was inoculated to wells of a TC MICROWELL 96U plate (Nalge Nunc International, Catalog No. 163320) and was cultured in a 5% carbon dioxide gas incubator at 37° C. for 24 hours. Each 20 μL of a solution of the test compound in dimethyl sulfoxide (DMSO) which was prepared to make the final concentration to 1 μmol/L or 10 μmol/L, was added to each well. Each 20 μL of DMSO was added to the control well and the blank well to a final concentration of 0.1%. After adding the test compound, the cells were incubated in a 5% carbon dioxide gas incubator at 37° C. for 72 hours except for the blank well. After adding 20 μL of WST-1 reagent {4-[3-(4-iodophenyl)-2-(4-nitrophenyl)-2H-5-tetrazolio]-1,3-benzene disulfonate sodium salt} (Roche Diagnostics K.K., Catalog No. 1644807), which was diluted to 50% by RPMI medium to each well, the cells were further incubated at 37° C. for 2 hours. Then, the absorbances at 450 nm (reference wavelength: 690 nm) were measured with a microplate spectrophotometer SPECTRA max 340PC (Molecular Devices Corporation). The relative growth (%) of a well to which the test compound had been added and cultured for 72 hours was determined while setting the absorbance of a well to which not the test compound but DMSO alone had been added and cultured for 72 hours (control) as 100% and that of a well where the drugs are added (blank) as 0%. The cytostatic rate (%) of the test compound was determined by subtracting the calculated relative growth from 100.

IGF-1R = target: T1, IGF-1R (Homo sapiens, UniProt P08069); assay: IGF-1R inhibitory activity (kinase reaction, time-resolved fluoroimmunoassay); type: biochemical; settings: test compound 10 μmol/L
T1 construct: purchased Upstate Co. 14-465
Protocol: The IGF-1R inhibitory activity was measured in the following manner.
As IGF-1R, active recombinant enzyme (Catalog No. 14-465) purchased from Upstate Co., was used. To 96 well plate (FIA-PLATE BLACK 96 well FALT-BOTTOM HIGH BINDING, Greiner Bio-one, Catalog No. 655077) coated with NeutroAvidin (Pierce, Catalog No. 31000), biotinylated polyglutamic acid-tyrosine peptide (Nihon Schering K.K., Catalog No. 61GT0BAA) was immobilized and then blocked with 0.25% gelatin to be used as a plate for measuring the kinase reaction. Separately was prepared a solution containing at final concentrations, IGF-1R (200 μg/L), Tris.HCl(pH 7.5)(20 mmol/L), Na3VO4(0.1 mmol/L), MgCl2(1 mmol/L), MnCl2(10 mmol/L), ATP(10 mmol/L), 2-mercaptoethanol (0.04%), BSA(Bovine Serum Albumin) (0.1%), DMSO(0.1%), test compound (10 μmol/L). The solution (each 50 μL) was added to the well of the plate for measuring the kinase reaction and then, enzyme reaction was performed for 30 minutes at 24° C. The plate was washed with TBS-T [10 mmol/L Tris Cl (pH 7.5), 150 mmol/L NaCl, 0.05% Tween 20 (Bio-Rad, Catalog No. 170-6531)] 4 times, then reacted with europium-labeled anti-phosphotyrosine antibody, further washed with TBS-T 4 times and then, measured with time-resolved fluoroimmunoassay (excitation wavelength 340 nm, measuring wavelength 615 nm). The value of a well to which the test compound had not been added was considered as 100% and that of a well where the enzyme and the test compound had not been added was considered as 0%. The relative activity (%) of the well which was added with enzyme and the test compound was measured and by subtracting the calculated value from 100, IGF-1R inhibitory activity of the test compound (%) was determined.

[1] = IGF-1R active recombinant enzyme

T1 sequence (P08069 959-1367 limits assumed): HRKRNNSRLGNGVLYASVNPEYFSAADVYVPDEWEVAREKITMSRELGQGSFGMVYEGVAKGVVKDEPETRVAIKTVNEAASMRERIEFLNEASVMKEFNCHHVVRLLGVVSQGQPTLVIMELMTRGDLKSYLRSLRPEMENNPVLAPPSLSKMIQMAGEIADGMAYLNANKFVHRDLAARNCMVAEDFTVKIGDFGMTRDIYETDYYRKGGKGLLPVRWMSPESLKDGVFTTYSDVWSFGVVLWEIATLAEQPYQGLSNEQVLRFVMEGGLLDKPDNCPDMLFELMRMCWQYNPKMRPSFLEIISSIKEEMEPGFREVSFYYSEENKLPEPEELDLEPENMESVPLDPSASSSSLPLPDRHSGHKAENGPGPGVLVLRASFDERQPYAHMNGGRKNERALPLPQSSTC

CN(C(=O)c1ccccc1)c1ccccc1/C=C/c1n[nH]c2ccccc12 [Compound 38, (E)-N-{2-[2-(1H-indazol-3-yl)vinyl]phenyl}-N-methylbenzamide]
inhibition at 10 µM (NCI-H929): 65% | inhibition at 10 µM (IGF-1R; [1]): 93%

O=C(Nc1ccc(C(=O)Nc2ccccc2/C=C/c2n[nH]c3ccccc23)s1)c1cccs1 [Compound 61, (E)-N-{2-[2-(1H-indazol-3-yl)vinyl]phenyl}-5-[(thiophen-2-ylcarbonyl)amino]thiophene-2-carboxamide]
inhibition at 10 µM (NCI-H929): 124% | inhibition at 10 µM (IGF-1R; [1]): 94.5%

CC(C)C(=O)Nc1ccc(C(=O)Nc2ccccc2/C=C/c2n[nH]c3ccccc23)s1 [Compound 62, (E)-N-{2-[2-(1H-indazol-3-yl)vinyl]phenyl}-5-isobutyrylaminothiophene-2-carboxamide]
inhibition at 10 µM (NCI-H929): 120% | inhibition at 10 µM (IGF-1R; [1]): 95.7%

COc1cc(N)c(/C=C/c2n[nH]c3ccccc23)cc1OC [Compound 92, (E)-2-[2-(1H-indazol-3-yl)vinyl]-4,5-dimethoxyphenylamine]
inhibition at 10 µM (NCI-H929): 70.1% | inhibition at 10 µM (IGF-1R): 66.5%

Cc1ccsc1C(=O)Nc1cc(C(=O)O)ccc1/C=C/c1n[nH]c2ccccc12 [Compound 98, (E)-4-[2-(1H-indazol-3-yl)vinyl]-3-[(3-methylthiophen-2-ylcarbonyl)amino]benzoic acid]
inhibition at 10 µM (NCI-H929): 66.3% | inhibition at 10 µM (IGF-1R): 98.4%

Cc1ccsc1C(=O)Nc1cc(C(=O)N2CC[C@@H](N)C2)ccc1/C=C/c1n[nH]c2ccccc12 [Compound 102, (E)-(R)—N-{5-(3-aminopyrrolidine-1-ylcarbonyl)-2-[2-(1H-indazol-3-yl)vinyl]phenyl}-3-methylthiophene-2-carboxamide]
inhibition at 10 µM (NCI-H929): 125% | inhibition at 10 µM (IGF-1R): 97.8%

Cc1ccsc1C(=O)Nc1cc(C(=O)N2CC[C@@H](N)C2)ccc1/C=C/c1n[nH]c2ccccc12 [Compound 221, (E)-(R)—N-{2-[2-(1H-indazol-3-yl)vinyl]-5-(3-aminopyrrolidin-1-ylcarbonyl)phenyl}-3-methylthiophene-2-carboxamide hydrochloride]
inhibition at 10 µM (IGF-1R; [1]): 95.8%

Cc1ccsc1C(=O)Nc1ccc(N2CCOCC2)cc1/C=C/c1n[nH]c2ccccc12 [Compound 225, (E)-N-{2-[2-(1H-indazol-3-yl)vinyl]-4-(morpholin-4-yl)phenyl}-3-methylthiophene-2-carboxamide hydrochloride]
inhibition at 10 µM (IGF-1R; [1]): 95%

Cn1cccc1C(=O)Nc1ccc(N2CCOCC2)cc1/C=C/c1n[nH]c2ccccc12 [Compound 226, (E)-N-{2-[2-(1H-indazol-3-yl)vinyl]-4-(morpholin-4-yl)phenyl}-1-methyl-1H-pyrrole-2-carboxamide hydrochloride]
inhibition at 10 µM (IGF-1R; [1]): 97.8%

O=C1c2ccccc2C(=O)N1c1ccc(F)cc1/C=C/c1n[nH]c2ccccc12 [Compound 250, (E)-2-{4-fluoro-2-[2-(1H-indazol-3-yl)vinyl]phenyl}isoindole-1,3-dione]
inhibition at 10 µM (IGF-1R; [1]): 98.9%

O=C(Nc1cc(Cl)ccc1/C=C/c1n[nH]c2ccccc12)c1cccs1 [Compound 257, (E)-{5-chloro-2-[2-(1H-indazol-3-yl)vinyl]phenyl}thiophene-2-carboxamide]
inhibitory activity (%) at 10 μmol/L (IGF-1R; [1]): 101.8%

O=C1c2ccccc2C(=O)N1c1cc(Cl)ccc1/C=C/c1n[nH]c2ccccc12 [Compound 258, (E)-2-{5-chloro-2-[2-(1H-indazol-3-yl)vinyl]phenyl}isoindole-1,3-dione]
inhibition at 10 µM (IGF-1R; [1]): 100%

O=C(c1ccc(/C=C/c2n[nH]c3ccccc23)c(N2C(=O)c3ccccc3C2=O)c1)N1CCOCC1 [Compound 276, (E)-N-{2-[2-(1H-indazol-3-yl)vinyl]-5-(morpholin-4-ylcarbonyl)phenyl}isoindole-1,3-dione]
inhibition at 10 µM (IGF-1R; [1]): 99.6%

CN(C)C(=O)c1ccc(/C=C/c2n[nH]c3ccccc23)c(N2C(=O)c3ccccc3C2=O)c1 [Compound 285, (E)-3-(1,3-dioxo-1,3-dihydroisoindol-2-yl)-4-[2-(1H-indazol-3-yl)vinyl]-N,N-dimethylbenzamide]
inhibition at 10 µM (IGF-1R; [1]): 99%

O=C(c1ccc(/C=C/c2n[nH]c3ccccc23)c(N2C(=O)c3ccccc3C2=O)c1)N1CCN(CCO)CC1 [Compound 286, (E)-2-[5-[4-(2-hydroxyethyl)piperazin-1-ylcarbonyl]-2-[2-(1H-indazol-3-yl)vinyl]phenyl]isoindole-1,3-dione]
inhibition at 10 µM (IGF-1R; [1]): 96.1%

CN1CCN(C(=O)c2ccc(/C=C/c3n[nH]c4ccccc34)c(N3C(=O)c4ccccc4C3=O)c2)CC1 [Compound 287]
inhibitory activity (%) at 10 μmol/L (IGF-1R; [1]): 97.1%

O=C(Nc1cc(C(=O)N2CCN(CCCO)CC2)ccc1/C=C/c1n[nH]c2ccccc12)c1ccco1 [Compound 291, (E)-N-{5-[4-(3-hydroxypropyl)piperazin-1-ylcarbonyl]-2-[2-(1H-indazol-3-yl)vinyl]phenyl}furan-2-carboxamide]
inhibition at 10 µM (IGF-1R; [1]): 97.7%

O=C1c2ccccc2C(=O)N1c1cc(N2CCN(CCO)CC2)ccc1/C=C/c1n[nH]c2ccccc12 [Compound 299, (E)-2-{5-[4-(2-hydroxyethyl)piperazin-1-yl]-2-[2-(1H-indazol-3-yl)vinyl]phenyl}isoindole-1,3-dione]
inhibition at 10 µM (IGF-1R; [1]): 92.9%

Nc1cccc2c1CN(c1cc(CN3CCN(CCCO)CC3)ccc1/C=C/c1n[nH]c3ccccc13)C2=O [Compound 314, (E)-4-amino-2-{5-[4-(3-hydroxypropyl)piperazin-1-ylmethyl]-2-[2-(1H-indazol-3-yl)vinyl]phenyl}-2,3-dihydroisoindole-1-one]
inhibition at 10 µM (IGF-1R; [1]): 102%

CN1CCN(C(=O)c2ccc(/C=C/c3n[nH]c4ccccc34)c(N3Cc4cccc(N)c4C3=O)c2)CC1 [Compound 316, (E)-7-amino-2-{2-[2-(1H-indazol-3-yl)vinyl]-5-(4-methylpiperazin-1-ylcarbonyl)phenyl}-2,3-dihydroisoindole-1-one]
inhibition at 10 µM (IGF-1R; [1]): 103%

Nc1cccc2c1CN(c1cc(C(=O)N3CCOCC3)ccc1/C=C/c1n[nH]c3ccccc13)C2=O [Compound 324, (E)-4-amino-2-{2-[2-(1H-indazol-3-yl)vinyl]-5-(morpholin-4-ylcarbonyl)phenyl}-2,3-dihydroisoindole-1-one]
inhibition at 10 µM (IGF-1R; [1]): 102%

Nc1cccc2c1CN(c1cc(CN3CCN(CCO)CC3)ccc1/C=C/c1n[nH]c3ccccc13)C2=O [Compound 345, (E)-4-amino-2-{5-[4-(2-hydroxyethyl)piperazin-1-ylmethyl]-2-[2-(1H-indazol-3-yl)vinyl]phenyl}-2,3-dihydroisoindole-1-one]
inhibition at 10 µM (IGF-1R; [1]): 105%

Cc1c(C(=O)Nc2ccccc2/C=C/c2n[nH]c3ccccc23)sc2ccccc12 [Compound 351, (E)-{2-[2-(1H-indazol-3-yl)vinyl]phenyl}-3-methylbenzo[b]thiophene-2-carboxamide]
inhibitory activity (%) at 10 μmol/L (IGF-1R; [1]): 99.1%

CS(=O)(=O)c1ccc(C(=O)Nc2ccccc2/C=C/c2n[nH]c3ccccc23)s1 [Compound 354, (E)-N-{2-[2-(1H-indazol-3-yl)vinyl]phenyl}-5-(methylsulfonyl)thiophene-2-carboxamide]
inhibition at 10 µM (IGF-1R; [1]): 97.1%
